Data set [1] is filed under the species Homo sapiens. Put plainly: Liver toxicity in human assessed as induction of drug-induced liver injury by measuring severity class index.
For data set [2], the species on record is Homo sapiens. Kind of data set: Liver toxicity in human assessed as induction of drug-induced liver injury by measuring verified drug-induced liver injury concern status.

SMILES strings stand for the structures.
For DILI severity class in this document: key of the grades not given here.

Take `C[C@]12CC[C@H]3[C@@H](CCC4=CC(=O)CC[C@@]43C)[C@@H]1CC[C@@H]2O` [TESTOSTERONE]: the DILI_severity_class in data set [1] is 8. Further, the DILI_Concern result in data set [2] is reported as “Most-Dili-Concern”.

Regarding `COc1cc2c(cc1OC)C1CC(=O)C(CC(C)C)CN1CC2` (centres undefined) [TETRABENAZINE], the DILI_severity_class in data set [1] amounted to 3. In addition, the DILI_Concern entry in data set [2] was “Ambiguous-Dili-Concern”.

Regarding `CN(C)[C@@H]1C(O)=C(C(N)=O)C(=O)[C@@]2(O)C(O)=C3C(=O)c4c(O)cccc4[C@@](C)(O)[C@H]3C[C@@H]12` [TETRACYCLINE], in data set [1], the DILI_severity_class is on record as 2. For the same compound, the DILI_Concern result in data set [2] is listed as “Less-Dili-Concern”.

Take `O=C1CCC(N2C(=O)c3ccccc3C2=O)C(=O)N1` (centres undefined) [THALIDOMIDE]: the DILI_severity_class in data set [1] is listed as 4. In addition, in data set [2], the DILI_Concern result is “Less-Dili-Concern”.

`Cn1c(=O)c2[nH]cnc2n(C)c1=O.O` [THEOPHYLLINE]: the DILI_severity_class in data set [1] was determined as 0. For the same compound, the DILI_Concern entry in data set [2] is given as “No-Dili-Concern”.

On to `c1ccc2[nH]c(-c3cscn3)nc2c1` [THIABENDAZOLE], for which the DILI_severity_class in data set [1] came out at 7. For the same compound, the DILI_Concern entry in data set [2] was “Most-Dili-Concern”.

`Cc1ncc(C[n+]2csc(CCO)c2C)c(N)n1` [THIAMINE ION]: the DILI_severity_class in data set [1] came to 0. Further, in data set [2], the DILI_Concern entry was “No-Dili-Concern”.

Turning to `CSc1ccc2c(c1)N(CCC1CCCCN1C)c1ccccc1S2` (centres undefined) [THIORIDAZINE], in data set [1], the DILI_severity_class is on record as 5. Moreover, in data set [2], the DILI_Concern result is on record as “Less-Dili-Concern”.

Regarding `S=P(N1CC1)(N1CC1)N1CC1` [THIOTEPA], the DILI_severity_class in data set [1] was found to be 3. In addition, the DILI_Concern result in data set [2] was “Less-Dili-Concern”.

Turning to `Cc1ccsc1C(=CCCN1CCC[C@@H](C(=O)O)C1)c1sccc1C` [TIAGABINE], the DILI_severity_class in data set [1] is 3. In addition, the DILI_Concern entry in data set [2] was “Ambiguous-Dili-Concern”.

For `CN(C)c1cc(NC(=O)CNC(C)(C)C)c(O)c2c1C[C@H]1C[C@H]3[C@H](N(C)C)C(O)=C(C(N)=O)C(=O)[C@@]3(O)C(O)=C1C2=O` [TIGECYCLINE], the DILI_severity_class in data set [1] turned out to be 8. Also, the DILI_Concern entry in data set [2] is reported as “Ambiguous-Dili-Concern”.

Take `Cc1cc(Br)c(O)c2ncccc12` [TILBROQUINOL]: in data set [1], the DILI_severity_class is 8. Besides, the DILI_Concern entry in data set [2] is given as “Most-Dili-Concern”.

For the compound `O=P(O)(O)C(Sc1ccc(Cl)cc1)P(=O)(O)O` [TILUDRONIC ACID], the DILI_severity_class in data set [1] amounted to 0. In addition, in data set [2], the DILI_Concern entry was “No-Dili-Concern”.

As to `CC(C)(C)NC[C@H](O)COc1nsnc1N1CCOCC1` [TIMOLOL], the DILI_severity_class in data set [1] was 5. In addition, the DILI_Concern entry in data set [2] was “Ambiguous-Dili-Concern”.

For `CCS(=O)(=O)CCn1c([N+](=O)[O-])cnc1C` [TINIDAZOLE], the DILI_severity_class in data set [1] stood at 3. In data set [2], the DILI_Concern result is listed as “Less-Dili-Concern”.

In the case of `CC(S)C(=O)NCC(=O)O` (centres undefined) [TIOPRONIN], the DILI_severity_class in data set [1] is recorded as 3. Besides, the DILI_Concern result in data set [2] was “Ambiguous-Dili-Concern”.

Turning to `CCCCS(=O)(=O)N[C@@H](Cc1ccc(OCCCCC2CCNCC2)cc1)C(=O)O` [TIROFIBAN], the DILI_severity_class in data set [1] came out at 0. Also, in data set [2], the DILI_Concern entry is “No-Dili-Concern”.

In the case of `Clc1ccc2nsnc2c1NC1=NCCN1` [TIZANIDINE], the DILI_severity_class in data set [1] worked out at 8. In addition, in data set [2], the DILI_Concern result is on record as “Most-Dili-Concern”.

On to `Cc1ccc(S(=O)(=O)NC(=O)NN2CCCCCC2)cc1` [TOLAZAMIDE], for which the DILI_severity_class in data set [1] came to 2. The DILI_Concern result in data set [2] is given as “Less-Dili-Concern”.

With `Cc1ccc(C(=O)c2cc(O)c(O)c([N+](=O)[O-])c2)cc1` [TOLCAPONE], the DILI_severity_class in data set [1] is listed as 8. For the same compound, the DILI_Concern result in data set [2] was “Most-Dili-Concern”.

Turning to `Cc1ccc(C(=O)c2ccc(CC(=O)O)n2C)cc1` [TOLMETIN], the DILI_severity_class in data set [1] came out at 3. In data set [2], the DILI_Concern result is listed as “Less-Dili-Concern”.

As to `COc1ccc2c(C(=S)N(C)CC(=O)O)cccc2c1C(F)(F)F` [TOLRESTAT], the DILI_severity_class in data set [1] came out at 8. Moreover, the DILI_Concern result in data set [2] is reported as “Most-Dili-Concern”.

As to `Cc1ccc(O)c([C@H](CCN(C(C)C)C(C)C)c2ccccc2)c1` [TOLTERODINE], the DILI_severity_class in data set [1] came out at 0. Further, the DILI_Concern result in data set [2] is “No-Dili-Concern”.

Turning to `Cc1ccccc1C(=O)Nc1ccc(C(=O)N2CCCC(O)c3cc(Cl)ccc32)c(C)c1` (centres undefined) [TOLVAPTAN], the DILI_severity_class in data set [1] was determined as 8. The DILI_Concern entry in data set [2] is “Most-Dili-Concern”.

Turning to `CC1(C)O[C@@H]2[C@@H](CO[C@@]3(COS(N)(=O)=O)OC(C)(C)O[C@@H]23)O1` [TOPIRAMATE], the DILI_severity_class in data set [1] came out at 3. In data set [2], the DILI_Concern entry is given as “Less-Dili-Concern”.

For `CC[C@@]1(O)C(=O)OCc2c1cc1n(c2=O)Cc2cc3c(CN(C)C)c(O)ccc3nc2-1` [TOPOTECAN], the DILI_severity_class in data set [1] is 0. Also, the DILI_Concern result in data set [2] was “No-Dili-Concern”.

Regarding `CN(C)CCOc1ccc(/C(=C(/CCCl)c2ccccc2)c2ccccc2)cc1` [TOREMIFENE], in data set [1], the DILI_severity_class was 3. Moreover, the DILI_Concern entry in data set [2] is listed as “Ambiguous-Dili-Concern”.

On to `Cc1cccc(Nc2ccncc2S(=O)(=O)NC(=O)NC(C)C)c1` [TORSEMIDE], for which the DILI_severity_class in data set [1] was determined as 2. Besides, the DILI_Concern result in data set [2] is given as “Ambiguous-Dili-Concern”.

On to `COc1cccc(C2(O)CCCCC2CN(C)C)c1` (centres undefined) [TRAMADOL], for which the DILI_severity_class in data set [1] is 7. The DILI_Concern result in data set [2] is listed as “Ambiguous-Dili-Concern”.

As to `CCOC(=O)[C@H](CCc1ccccc1)N[C@@H](C)C(=O)N1[C@H](C(=O)O)C[C@H]2CCCC[C@@H]21` [TRANDOLAPRIL], in data set [1], the DILI_severity_class was determined as 4. Besides, the DILI_Concern entry in data set [2] is on record as “Less-Dili-Concern”.

For the compound `N[C@@H]1C[C@H]1c1ccccc1.N[C@H]1C[C@@H]1c1ccccc1` [TRANYLCYPROMINE], the DILI_severity_class in data set [1] was found to be 3. The DILI_Concern entry in data set [2] is “Less-Dili-Concern”.

Regarding `O=c1n(CCCN2CCN(c3cccc(Cl)c3)CC2)nc2ccccn12` [TRAZODONE], the DILI_severity_class in data set [1] is on record as 5. The DILI_Concern entry in data set [2] is given as “Less-Dili-Concern”.

As to `CC1=C(/C=C/C(C)=C/C=C/C(C)=C/C(=O)O)C(C)(C)CCC1` [TRETINOIN], the DILI_severity_class in data set [1] was found to be 3. Besides, in data set [2], the DILI_Concern entry is on record as “Ambiguous-Dili-Concern”.

Take `CC(=O)Oc1ccc(C2(c3ccc(OC(C)=O)cc3)C(=O)N(C(C)=O)c3ccccc32)cc1` [TRIACETYLDIPHENOLISATIN]: the DILI_severity_class in data set [1] was determined as 8. Further, the DILI_Concern result in data set [2] was “Most-Dili-Concern”.

For `Cc1nnc2n1-c1ccc(Cl)cc1C(c1ccccc1Cl)=NC2` [TRIAZOLAM], the DILI_severity_class in data set [1] is listed as 4. Further, in data set [2], the DILI_Concern entry was “Ambiguous-Dili-Concern”.

Take `CN1CCN(CCCN2c3ccccc3Sc3ccc(C(F)(F)F)cc32)CC1` [TRIFLUOPERAZINE]: in data set [1], the DILI_severity_class is on record as 2. In data set [2], the DILI_Concern result is on record as “Ambiguous-Dili-Concern”.

For the compound `OC(CCN1CCCCC1)(c1ccccc1)C1CCCCC1` (centres undefined) [TRIHEXYPHENIDYL], the DILI_severity_class in data set [1] was determined as 0. Also, in data set [2], the DILI_Concern entry is given as “No-Dili-Concern”.

In the case of `CN1C(=O)OC(C)(C)C1=O` [TRIMETHADIONE], the DILI_severity_class in data set [1] worked out at 5. For the same compound, in data set [2], the DILI_Concern result is listed as “Ambiguous-Dili-Concern”.

Turning to `COc1cc(C(=O)NCc2ccc(OCCN(C)C)cc2)cc(OC)c1OC` [TRIMETHOBENZAMIDE], the DILI_severity_class in data set [1] was found to be 5. Besides, in data set [2], the DILI_Concern entry is listed as “Ambiguous-Dili-Concern”.

With `COc1cc(Cc2cnc(N)nc2N)cc(OC)c1OC` [TRIMETHOPRIM], the DILI_severity_class in data set [1] came to 4. In addition, in data set [2], the DILI_Concern entry is reported as “Less-Dili-Concern”.

As to `COc1cc(NCc2ccc3nc(N)nc(N)c3c2C)cc(OC)c1OC` [TRIMETREXATE], in data set [1], the DILI_severity_class was found to be 3. Besides, in data set [2], the DILI_Concern entry was “Ambiguous-Dili-Concern”.

With `CC(CN(C)C)CN1c2ccccc2CCc2ccccc21` (centres undefined) [TRIMIPRAMINE], in data set [1], the DILI_severity_class is 2. The DILI_Concern entry in data set [2] is reported as “Ambiguous-Dili-Concern”.

For `Cc1ccc(/C(=C\CN2CCCC2)c2ccccn2)cc1` [TRIPROLIDINE], the DILI_severity_class in data set [1] came to 0. The DILI_Concern result in data set [2] is listed as “No-Dili-Concern”.

Turning to `Cc1c(C)c2c(c(C)c1O)CCC(C)(COc1ccc(CC3SC(=O)NC3=O)cc1)O2` (centres undefined) [TROGLITAZONE], in data set [1], the DILI_severity_class is reported as 8. The DILI_Concern entry in data set [2] was “Most-Dili-Concern”.

Regarding `NC(CO)(CO)CO` [TROMETHAMINE], the DILI_severity_class in data set [1] is on record as 6. For the same compound, the DILI_Concern entry in data set [2] is given as “Ambiguous-Dili-Concern”.

For the compound `O=C(O[C@H]1C[C@H]2CC[C@@H](C1)[N+]21CCCC1)C(O)(c1ccccc1)c1ccccc1.[Cl-]` [TROSPIUM CHLORIDE], the DILI_severity_class in data set [1] is reported as 0. Also, the DILI_Concern result in data set [2] is “No-Dili-Concern”.

Consider `N[C@@H]1[C@H]2CN(c3nc4c(cc3F)c(=O)c(C(=O)O)cn4-c3ccc(F)cc3F)C[C@@H]12` [TROVAFLOXACIN], for which the DILI_severity_class in data set [1] worked out at 8. Besides, the DILI_Concern result in data set [2] is reported as “Most-Dili-Concern”.

Regarding `NCCc1ccc(O)cc1` [TYRAMINE], the DILI_severity_class in data set [1] came to 0. The DILI_Concern entry in data set [2] is “No-Dili-Concern”.

On to `C[C@H](CCC(=O)O)[C@H]1CC[C@H]2[C@@H]3[C@@H](O)C[C@@H]4C[C@H](O)CC[C@]4(C)[C@H]3CC[C@]12C` [URSODIOL], for which the DILI_severity_class in data set [1] was 0. Besides, the DILI_Concern entry in data set [2] is listed as “Ambiguous-Dili-Concern”.

Consider `CC(C)[C@H](N)C(=O)OCCOCn1cnc2c(=O)[nH]c(N)nc21` [VALACYCLOVIR], for which the DILI_severity_class in data set [1] was found to be 3. The DILI_Concern entry in data set [2] is “Less-Dili-Concern”.

For the compound `Cc1onc(-c2ccccc2)c1-c1ccc(S(N)(=O)=O)cc1` [VALDECOXIB], in data set [1], the DILI_severity_class was determined as 3. Besides, in data set [2], the DILI_Concern result was “Less-Dili-Concern”.

Regarding `CC(C)[C@H](N)C(=O)OCC(CO)OCn1cnc2c(=O)nc(N)[nH]c21` (some centres undefined) [VALGANCICLOVIR], the DILI_severity_class in data set [1] amounted to 3. In data set [2], the DILI_Concern result is “Ambiguous-Dili-Concern”.

(Values after ChEMBL document CHEMBL4028802, “DILIrank: the largest reference drug list ranked by the risk for developing drug-induced liver injury in humans” (Drug Discov Today, 2016).)
